For one series, the system named is E. coli (NDM-1+). As to the kind of experiment: Microdilution MIC and MBC assay, checkerboard FICI. It counts as cell-based. The settings on record: for MBC of MER with Bi(III) compound / MIC of MER with Bi(III) compound: Bi(III) compound at 32 μg mL^−1, E. coli (NDM-1+); for FIC Index: MER with Bi(III) compound, E. coli (NDM-1+). Background: Dilution methods test growth across graded concentrations, often in twofold steps.

The next series concerns E. coli (IMP-4+). The experiment in a line: Microdilution MIC and MBC assay, FICI. It counts as cell-based.
The test system of a further series is E. coli (VIM-2+). As to the kind of experiment: Microdilution MIC and MBC assay, FICI. It counts as cell-based.
The next series has as its system K. pneumonia (NDM-1+). The experiment in a line: Microdilution MIC and MBC assay, FICI. It counts as cell-based. Particulars: for MBC of MER with Bi(III) compound / MIC of MER with Bi(III) compound: Bi(III) compound at 32 μg mL^−1, K. pneumonia (NDM-1+); for FIC Index: MER with Bi(III) compound, K. pneumonia (NDM-1+).
The next series relates to C. freundii (NDM-1+). As to the kind of experiment: Microdilution MIC and MBC assay, FICI. It counts as cell-based.
The target of the next series is NDM-1 (Klebsiella pneumoniae, UniProt C7C422). The experiment in a line: IC50 enzyme inhibition assay, MER hydrolysis. The settings on record: Zn2-NDM-1 50 nM, 1 h preincubation at 25° C., 100 μM MER. It counts as biochemical. From the text: (§1) […]. The initial rate were extracted and calculated from each reaction curves.
Sequence of NDM-1 (C7C422 whole entry, looked up): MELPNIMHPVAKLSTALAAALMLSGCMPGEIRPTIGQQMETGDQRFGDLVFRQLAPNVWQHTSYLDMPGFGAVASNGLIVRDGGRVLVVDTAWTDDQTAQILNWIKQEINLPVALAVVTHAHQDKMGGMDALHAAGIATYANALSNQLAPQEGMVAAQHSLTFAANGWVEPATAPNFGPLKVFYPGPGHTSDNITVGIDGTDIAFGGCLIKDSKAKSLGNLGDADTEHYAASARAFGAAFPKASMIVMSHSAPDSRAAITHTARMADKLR
The next series concerns the target VIM-2 (Escherichia coli, UniProt Q5U7L7). As to the kind of experiment: IC50 enzyme inhibition assay, MER hydrolysis. The settings on record: Zn2-VIM-2, 1 h preincubation at 25° C., 100 μM MER. It counts as biochemical.
Text: as §1

Series [1] can be described thus: Solubility of the bismuth complexes (Table 1). The settings on record: solvent named, or insoluble.
[2] abbreviates: Bi(III) compound at 32 μg mL−1, E. coli (IMP-4+).
Where [3] appears, read: Bi(III) compound at 32 μg mL−1, E. coli (VIM-2+).
Where [4] appears, read: Bi(III) compound at 32 μg mL^−1, C. feudii (NDM-1+).

In the case of `NCC(=O)[O-].NCC(=O)[O-].NCC(=O)[O-].[Bi+3]` [Complex 18], in the series with E. coli (NDM-1+), the “MBC of MER with Bi(III) compound” value worked out at 16 µg/mL and the “MIC of MER with Bi(III) compound” value was 8 µg/mL.

Consider `O=[N+]([O-])[O-].O=[N+]([O-])[O-].[Bi+3].c1ccc(-c2ccccn2)nc1.c1ccc(-c2ccccn2)nc1` [Complex 16], for which, in the series with E. coli (NDM-1+), the “MBC of MER with Bi(III) compound” value came to 8 µg/mL and the “MIC of MER with Bi(III) compound” value is 2 µg/mL.

Consider `O=[N+]([O-])[O][Bi]([O][N+](=O)[O-])[O][N+](=O)[O-]` [Bi(NO3)3], for which the “MBC of MER with Bi(III) compound” value in the series with E. coli (NDM-1+) is 4 µg/mL; with E. coli (IMP-4+) (setting [2]), 8 µg/mL; with E. coli (VIM-2+) (setting [3]), 2 µg/mL; with K. pneumonia (NDM-1+) it was 1 µg/mL; in the series with C. freundii (NDM-1+) (setting [4]) it was 4 µg/mL. Further, the “MIC of MER with Bi(III) compound” value turned out to be 2 µg/mL with E. coli (NDM-1+); 4 µg/mL in the series with E. coli (IMP-4+) (setting [2]); 1 µg/mL in the series on E. coli (VIM-2+) (setting [3]); 1 µg/mL in the series on K. pneumonia (NDM-1+); 2 µg/mL in the series on C. freundii (NDM-1+) (setting [4]). Further, the “FIC Index” value in the series with E. coli (NDM-1+) is 0.266; in the series with E. coli (IMP-4+) (MER with Bi(III) compound, E. coli (IMP-4+)) it was 0.313; in the series with E. coli (VIM-2+) (MER with Bi(III) compound, E. coli (VIM-2+)), 0.063; with K. pneumonia (NDM-1+), 0.125; in the series on C. freundii (NDM-1+) (MER with Bi(III) compound, C. freundii (NDM-1+)) it was 0.375. Further, the figures for the IC50 against NDM-1 and against VIM-2 were 1890 ± 230 nM and 2450 ± 630 nM, respectively.

Take `CNC(=C[N+](=O)[O-])NCCSCc1ccc(CN(C)C)o1.O=C([O-])CC(O)(CC(=O)[O-])C(=O)[O-].[Bi+3]` [RBC, ranitidine bismuth citrate]: in the series with E. coli (NDM-1+), the “MBC of MER with Bi(III) compound” value is 4 µg/mL and the “MIC of MER with Bi(III) compound” value was determined as 2 µg/mL.

In the case of `C1=CC2=C(c3ccccc3)c3ccc4[n]3[Bi+][n]3c(ccc3=C(c3ccccc3)C3=NC(=C4c4ccccc4)C=C3)=C(c3ccccc3)C1=N2` [Complex 1], in the series on E. coli (NDM-1+), the “MBC of MER with Bi(III) compound” value worked out at 8 µg/mL, the “MIC of MER with Bi(III) compound” value came out at 4 µg/mL and the “FIC Index” value was determined as 0.266. In the series on K. pneumonia (NDM-1+), the “MBC of MER with Bi(III) compound” value is 16 µg/mL, the “MIC of MER with Bi(III) compound” value came to 4 µg/mL and the “FIC Index” value came out at 0.375.

For the compound `O.O.O=C([O-])CN(CC(=O)[O-])CC(=O)[O-].[Bi+3]` [Complex 11], in the series with E. coli (NDM-1+), the “MBC of MER with Bi(III) compound” value worked out at 8 µg/mL and the “MIC of MER with Bi(III) compound” value stood at 4 µg/mL.

For bismuth subgallate [Complex 14], in the series with E. coli (NDM-1+), the “MBC of MER with Bi(III) compound” value turned out to be 8 µg/mL, the “MIC of MER with Bi(III) compound” value was 4 µg/mL and the “FIC Index” value is listed as 0.375. Moreover, the Solubility result in series [1] is given as “Insoluble”.

For `[Bi+3].[O-]c1c([O-])c(Br)c(Br)c(Br)c1Br.[O-]c1c([O-])c(Br)c(Br)c(Br)c1Br` [Complex 13], in the series on E. coli (NDM-1+), the “MBC of MER with Bi(III) compound” value is 2 µg/mL, the “MIC of MER with Bi(III) compound” value stood at 1 µg/mL and the “FIC Index” value is 0.250. In addition, the Solubility entry in series [1] is “DMSO”.

On to `O=C(O)c1ccccc1[S-].O=C([O-])c1ccccc1[S-].[Bi+3]` [Complex 7], for which, in the series on E. coli (NDM-1+), the “MBC of MER with Bi(III) compound” value is 2 µg/mL, the “MIC of MER with Bi(III) compound” value is 1 µg/mL and the “FIC Index” value turned out to be 0.250. Also, the Solubility result in series [1] is reported as “DMSO”.

(Values after patent US10624871B2, “Bismuth(III) compounds and methods thereof” (priority 2016, dated 2020).)
